Test results reported in PubChem BioAssay (NCI).
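Growth conditions: 96-well plates. Treatment: test compound, 48 hours, 5 concentrations. Analysis: linear interpolation between bracketing concentrations; unreached endpoints set to highest concentration. GI50: concentration for 50% inhibition of growth. TGI: concentration producing complete growth inhibition.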

How the values were obtained:
Test in all cases: NCI tumour cell line growth inhibition, 48 h
[1] = tested on: IGROV1 ovarian
[2] = tested on: 786-0 renal
[3] = tested on: LOX IMVI melanoma
[4] = tested on: RXF 393 renal
[5] = tested on: MALME-3M melanoma
[6] = tested on: OVCAR-4 ovarian
[7] = tested on: DU-145 prostate
[8] = tested on: OVCAR-8 ovarian
[9] = tested on: HCT-15 colon
[10] = tested on: M14 melanoma

Row | SMILES | GI50 [1] [µM] | TGI [1] [µM] | GI50 [2] [µM] | TGI [2] [µM] | GI50 [3] [µM] | TGI [3] [µM] | GI50 [4] [µM] | TGI [4] [µM] | GI50 [5] [µM] | TGI [5] [µM] | GI50 [6] [µM] | TGI [6] [µM] | GI50 [7] [µM] | TGI [7] [µM] | GI50 [8] [µM] | TGI [8] [µM] | GI50 [9] [µM] | TGI [9] [µM] | GI50 [10] [µM] | TGI [10] [µM]
1 | COc1ccc(-c2oc3ncnc(N)c3c2-c2ccc(NC(=O)Nc3cc(C(F)(F)F)ccc3F)cc2)cc1 | 0.995 | 5.82 | 1.45 | 5.49 | 0.658 | 3.21 | 0.473 | 1.15 | 1.81 | 6.22 | 1.05 | 8.45 | 1.14 | 4.16 | 0.79 | 3.73 | 1.04 | 6.65 | 0.806 | 3.23
2 | Cc1ccc(NC(=O)CCc2nnc3s/c(=C\C=C\c4ccccc4)c(=O)n23)cc1 | – | > 100 | – | > 100 | – | > 86.8 | – | > 100 | – | > 100 | – | > 56.2 | – | > 100 | – | 77.4 | – | > 100 | – | > 100
3 | COc1ccc2c(c1)C(=O)/C(=C/c1ccc(O)cc1)O2 | 6.87 | 20.8 | 17.9 | 41.4 | 3.29 | 14 | 11 | 26 | 5.47 | 13.2 | 5.67 | 12.7 | 9.45 | 21.9 | 27.2 | > 75 | 4.2 | 15.8 | 15.3 | 34
4 | COc1cc(OCCCN2CCCC2)ccc1Nc1ncc(Cl)c(Nc2ccccc2P(C)(C)=O)n1 | 1.41 | 22.5 | 2.7 | 11.6 | 1.32 | 4.4 | 0.81 | 3.23 | 6.06 | 22.6 | 1.52 | 11.7 | 1.91 | 36.4 | 3.65 | 38.8 | 3.67 | > 46.6 | 2.58 | 12.3
5 | COc1ccc(-c2c(NC(=O)Nc3ccc(Cl)c(C(F)(F)F)c3)cnn2-c2ccc(S(N)(=O)=O)cc2)cc1 | 3.66 | 21.3 | 1.68 | 3.42 | 2.75 | 8.36 | 2.6 | 9.83 | 2.51 | 7.72 | 2.9 | 13.1 | 3.46 | 12.1 | 3.39 | 13 | 3.63 | 14.4 | 3.32 | 12
6 | C=C[C@@H]1CCC/C=C/[C@@H]2C[C@H](O)C[C@H]2[C@H](O)/C=C/C(=O)O1 | 1.7 | > 100 | 0.257 | 0.606 | 0.269 | 0.815 | 0.247 | 0.68 | 0.274 | 1.06 | 0.407 | > 94.6 | 3.82 | > 100 | 0.44 | > 100 | 2.23 | > 100 | 0.387 | > 28.9
7 | COc1cccc(/C=C2\N=C(Cl)OC2=O)c1O | – | > 100 | – | > 100 | – | > 100 | – | > 100 | – | > 100 | – | > 100 | – | > 100 | – | > 100 | – | > 100 | – | > 100
